Source: US20160318933A1, “FUSED PYRAZOLE DERIVATIVE” (SUMITOMO DAINIPPON PHARMA CO., LTD., priority 2013, published 2016)

Molecular target: T1, human brain-derived dopamine D4 receptor (Homo sapiens, UniProt P21917)
T1 construct: expressed in transfected cells; host or cells: CHO (CHO-K1) or HEK293 cells
T1 sequence (P21917 1-419): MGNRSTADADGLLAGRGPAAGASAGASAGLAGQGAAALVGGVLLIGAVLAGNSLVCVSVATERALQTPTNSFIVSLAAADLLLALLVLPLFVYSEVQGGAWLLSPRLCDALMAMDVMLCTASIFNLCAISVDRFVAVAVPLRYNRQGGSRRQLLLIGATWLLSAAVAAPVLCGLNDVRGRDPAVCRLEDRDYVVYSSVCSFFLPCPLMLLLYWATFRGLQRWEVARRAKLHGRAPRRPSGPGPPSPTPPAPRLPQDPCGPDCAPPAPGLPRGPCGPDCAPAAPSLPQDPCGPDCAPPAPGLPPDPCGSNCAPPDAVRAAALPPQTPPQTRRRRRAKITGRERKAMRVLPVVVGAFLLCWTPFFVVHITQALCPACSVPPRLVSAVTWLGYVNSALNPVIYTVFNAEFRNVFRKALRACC
Assay: Agonistic activity in G protein dependent pathway of dopamine D4 receptor (aequorin intracellular calcium luminescence, FDSS)
Format: cell-based
Settings: for EC50: concentration required to achieve a 50% response of Emax, CHO-K1 or HEK293 cells transfected with D4 receptor; for Emax: read-out: Maximal activity on D4 receptor (%)
Procedure, shortened: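 CHO-K1 or HEK293 cells transfected with D4 receptor, cultured 24 h at 37 °C, preloaded with coelenterazine; aequorin luminescence recorded on FDSS after compound addition. Emax taken as maximal activity; EC50 as concentration giving 50% of Emax.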

Row | EC50 | Emax | Structure (SMILES)
1 | 0.127 µM | 53% | Cc1cnc(N)c(CN2CCn3nc(-c4ncccc4C)cc3C2)c1 [Example 103]
2 | 0.092 µM | 50% | FC(F)(F)c1c(-c2ccccn2)nn2c1CN(Cc1ccccc1)CC2 [Example 175]
3 | 0.027 µM | 64% | Cc1ccc(CN2CCn3nc(-c4ncccc4C)cc3C2)cn1 [Example 67]
4 | 0.06 µM | 64% | Cc1c(-c2ccccn2)nn2c1CN(Cc1ccc(C(F)(F)F)nc1N)CC2 [Example 92]
5 | 0.051 µM | 56% | Cc1c(-c2ccccn2)nn2c1CN(Cc1ccc(C(F)(F)F)nc1)CC2 [Example 95]
6 | 0.011 µM | 91% | Cc1cccc(CN2CCn3nc(-c4ncccc4F)c(C)c3C2)n1 [Example 126]
7 | 0.035 µM | 69% | c1ccc(-c2cc3n(n2)CCN(Cc2ccc4occc4c2)C3)nc1 [Example 39]
8 | 0.107 µM | 74% | Cc1cccc(CN2CCn3nc(-c4ncccc4C(F)(F)F)cc3C2)n1 [Example 152]
9 | 0.055 µM | 29% | Cc1cccnc1-c1cc2n(n1)CCN(Cc1cnc(C(F)F)nc1)C2 [Example 196]
10 | 0.025 µM | 52% | COc1ccccc1-c1cc2n(n1)CCN(Cc1cn3ccccc3n1)C2 [Example 17]
11 | 0.105 µM | 37% | c1ccc(CN2CCCn3nc(-c4ccccn4)cc3C2)cc1 [Example 8]
12 | 0.0006 µM | 56% | Cc1nc(CN2CCn3nc(-c4ncccc4C)cc3C2)cs1 [Example 139]
13 | 0.034 µM | 57% | Cc1cccnc1-c1cc2n(n1)CCN(Cc1cccc(F)c1)C2 [Example 61]
14 | 0.018 µM | 67% | Cc1cccnc1-c1cc2n(n1)CCN(Cc1n[nH]c3c(C)cccc13)C2 [Example 104]
15 | 0.019 µM | 52% | Cc1c(-c2ccccn2)nn2c1CN(Cc1ccccc1)CCC2 [Example 32, 5-Benzyl-3-methyl-2-(pyridin-2-yl)-5,6,7,8-tetrahydro-4H-pyrazolo[1,5-a][1,4]diazepine]
16 | 0.079 µM | 47% | Cc1cccnc1-c1cc2n(n1)CCN(Cc1cc3c(cn1)COC3)C2 [Example 182]
17 | 0.037 µM | 57% | Cc1cccnc1-c1cc2n(n1)CCN(Cc1ncn3ccccc13)C2 [Example 96]
18 | 0.033 µM | 59% | Cc1cccnc1-c1cc2n(n1)CCN(Cc1c[nH]c3ccccc13)C2 [Example 147]
19 | 0.099 µM | 59% | Cc1cccnc1-c1cc2n(n1)CCN(Cc1cccc(C(F)(F)F)c1)C2 [Example 60]
20 | 0.066 µM | 94% | Cc1ccc(CN2CCn3nc(-c4ncccc4C)c(Cl)c3C2)nc1 [Example 106, 3-Chloro-2-(3-methylpyridin-2-yl)-5-[(5-methylpyridin-2-yl)methyl]-4,5,6,7-tetrahydropyrazolo[1,5-a]pyrazine]
21 | 0.044 µM | 85% | Cn1cc(CN2CCn3nc(-c4ncccc4F)cc3C2)c2ccccc21 [Example 166]
22 | 0.034 µM | 58% | Cc1cccnc1-c1cc2n(n1)CCN(Cc1ccc(OC(F)(F)F)cc1C#N)C2 [Example 52]
23 | 0.159 µM | 22% | Cc1ccncc1CN1CCn2nc(-c3ncccc3C)cc2C1 [Example 111]
24 | 0.08 µM | 48% | Cc1cccnc1-c1cc2n(n1)CCN(Cc1ccc(C(F)(F)F)nc1)C2 [Example 143, 2-(3-Methylpyridin-2-yl)-5-{[6-(trifluoromethyl)pyridin-3-yl]methyl}-4,5,6,7-tetrahydropyrazolo[1,5-a]pyrazine]
25 | 0.096 µM | 50% | Cc1cccnc1-c1cc2n(n1)CCN(Cc1ccc(C(F)(F)F)c(F)c1)C2 [Example 48]
26 | 0.065 µM | 74% | Cc1cccnc1-c1cc2n(n1)CCN(Cc1nn(C)c3ccccc13)C2 [Example 158]
27 | 0.038 µM | 48% | N#Cc1ccc(CN2CCn3nc(-c4ccccn4)cc3C2)cc1 [Example 29]
